Earlier results in patent US5710046A, “Tagging hydrocarbons for subsequent identification” (Amoco Corporation, priority 1994, dated 1998).

[1] = dispersed in methanol or benzene

CCN1C(=CC=CC=CC=Cc2sc3ccc4ccccc4c3[n+]2CC)Sc2ccc3ccccc3c21 [DDTC, 3,3'-diethyl-2,2'-(4,5', 4',5'-dibenzo) thiatricarbocyanine iodide]
fluorescence wavelength [1]: approximately 840 nanometers | strong absorption [1]: 786 nanometers | fluorescence (in water): completely non-fluorescent | solubility (in water): less soluble
